# Tested on: 454973-116-R2-J3-PDC spheroids, percent test/control viability
# Test: Anticancer human tumor 454973-116-R2-J3-PDC patient-derived pancreatic carcinoma cell line growth inhibition [CLK]
# Details: spheroids with HUVEC and MSC; for IC50: curve of first compound; for viability, T/C: stronger effect = lower value
# Summary of the method: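 Multi-cell-type spheroids combined patient-derived tumor cells with HUVEC endothelial cells and human mesenchymal stem cells. Paired agents were dosed in half-log steps down from about clinical Cmax, or from 10 microM where Cmax was unknown.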
# [1] = second compound 0.0316 µM, first compound 0.0316 µM
# [2] = second compound 0.0316 µM, first compound 0.1 µM
# [3] = second compound 0.0316 µM, first compound 0.316 µM
# [4] = second compound 0.0316 µM, first compound 1 µM
# [5] = second compound 0.1 µM, first compound 0.0316 µM
# [6] = second compound 0.1 µM, first compound 0.1 µM
# [7] = second compound 0.1 µM, first compound 0.316 µM
# [8] = second compound 0.1 µM, first compound 1 µM
# [9] = second compound 0.316 µM, first compound 0.0316 µM
# [10] = second compound 0.316 µM, first compound 0.1 µM
# [11] = second compound 0.316 µM, first compound 0.316 µM
# [12] = second compound 0.316 µM, first compound 1 µM
# [13] = second compound 1 µM, first compound 0.0316 µM
# [14] = second compound 1 µM, first compound 0.1 µM
# [15] = second compound 1 µM, first compound 0.316 µM
# [16] = second compound 1 µM, first compound 1 µM
# [17] = second compound 3.16 µM, first compound 0.0316 µM
# [18] = second compound 3.16 µM, first compound 0.1 µM
# [19] = second compound 3.16 µM, first compound 0.316 µM
# [20] = second compound 3.16 µM, first compound 1 µM
# [21] = second compound 10 µM, first compound 0.0316 µM
# [22] = second compound 10 µM, first compound 0.1 µM
# [23] = second compound 10 µM, first compound 0.316 µM
# [24] = second compound 10 µM, first compound 1 µM
# 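Note: spheroids exposed to compounds for 7 days before readout.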
compound,measurement,setting,value
C#Cc1c(F)ccc2cc(O)cc(-c3ncc4c(N5CC6CCC(C5)N6)nc(OCC56CCCN5CC(F)C6)nc4c3F)c12 (centres undefined) + CN1CCN(c2cc(C(=O)Nc3cc4cc(-c5cnn(C)c5)ccc4cn3)ccn2)CC1,IC50,second compound 0.0316 µM,34.7 nM
same,IC50,second compound 0.1 µM,< 31.6 nM
same,IC50,second compound 0.316 µM,< 31.6 nM
same,IC50,second compound 1 µM,< 31.6 nM
same,IC50,second compound 3.16 µM,< 31.6 nM
same,IC50,second compound 10 µM,< 31.6 nM
same,"viability, T/C",[1],51%
same,"viability, T/C",[2],40.5%
same,"viability, T/C",[3],29.7%
same,"viability, T/C",[4],30.5%
same,"viability, T/C","second compound 0.0316 µM, first compound 3.16 µM",26.4%
same,"viability, T/C","second compound 0.0316 µM, first compound 10 µM",21.7%
same,"viability, T/C",[5],42%
same,"viability, T/C",[6],35.6%
same,"viability, T/C",[7],29.6%
same,"viability, T/C",[8],21.9%
same,"viability, T/C","second compound 0.1 µM, first compound 3.16 µM",22.5%
same,"viability, T/C","second compound 0.1 µM, first compound 10 µM",16.6%
same,"viability, T/C",[9],2.95%
same,"viability, T/C",[10],4.54%
same,"viability, T/C",[11],2.86%
same,"viability, T/C",[12],2.52%
same,"viability, T/C","second compound 0.316 µM, first compound 3.16 µM",2.6%
same,"viability, T/C","second compound 0.316 µM, first compound 10 µM",2.24%
same,"viability, T/C",[13],0.11%
same,"viability, T/C",[14],0.13%
same,"viability, T/C",[15],0.46%
same,"viability, T/C",[16],0.08%
same,"viability, T/C","second compound 1 µM, first compound 3.16 µM",0.12%
same,"viability, T/C","second compound 1 µM, first compound 10 µM",0.4%
same,"viability, T/C",[17],0.06%
same,"viability, T/C",[18],0.9%
same,"viability, T/C",[19],0.56%
same,"viability, T/C",[20],0.07%
same,"viability, T/C","second compound 3.16 µM, first compound 3.16 µM",0.09%
same,"viability, T/C","second compound 3.16 µM, first compound 10 µM",1.64%
same,"viability, T/C",[21],0.11%
same,"viability, T/C",[22],0.13%
same,"viability, T/C",[23],0.73%
same,"viability, T/C",[24],0.56%
same,"viability, T/C","second compound 10 µM, first compound 3.16 µM",0.92%
same,"viability, T/C","second compound 10 µM, first compound 10 µM",0.5%
CCN1CCN(Cc2ccc(Nc3ncc(F)c(-c4cc(F)c5nc(C)n(C(C)C)c5c4)n3)nc2)CC1 + CN1CCN(c2cc(C(=O)Nc3cc4cc(-c5cnn(C)c5)ccc4cn3)ccn2)CC1,IC50,second compound 0.0316 µM,> 1000 nM
same,IC50,second compound 0.1 µM,> 1000 nM
same,IC50,second compound 0.316 µM,< 3.16 nM
same,IC50,second compound 1 µM,< 3.16 nM
same,IC50,second compound 3.16 µM,< 3.16 nM
same,IC50,second compound 10 µM,< 3.16 nM
same,"viability, T/C","second compound 0.0316 µM, first compound 0.00316 µM",90.9%
same,"viability, T/C","second compound 0.0316 µM, first compound 0.01 µM",93.5%
same,"viability, T/C",[1],78.7%
same,"viability, T/C",[2],79.1%
same,"viability, T/C",[3],71%
same,"viability, T/C",[4],62.2%
same,"viability, T/C","second compound 0.1 µM, first compound 0.00316 µM",77.8%
same,"viability, T/C","second compound 0.1 µM, first compound 0.01 µM",78.5%
same,"viability, T/C",[5],70.6%
same,"viability, T/C",[6],81.2%
same,"viability, T/C",[7],63.5%
same,"viability, T/C",[8],66.9%
same,"viability, T/C","second compound 0.316 µM, first compound 0.00316 µM",2.22%
same,"viability, T/C","second compound 0.316 µM, first compound 0.01 µM",3.67%
same,"viability, T/C",[9],6.55%
same,"viability, T/C",[10],7.25%
same,"viability, T/C",[11],24.6%
same,"viability, T/C",[12],13.8%
same,"viability, T/C","second compound 1 µM, first compound 0.00316 µM",0.14%
same,"viability, T/C","second compound 1 µM, first compound 0.01 µM",1.49%
same,"viability, T/C",[13],2.77%
same,"viability, T/C",[14],0.19%
same,"viability, T/C",[15],0.21%
same,"viability, T/C",[16],0.24%
same,"viability, T/C","second compound 3.16 µM, first compound 0.00316 µM",0.15%
same,"viability, T/C","second compound 3.16 µM, first compound 0.01 µM",0.31%
same,"viability, T/C",[17],0.58%
same,"viability, T/C",[18],0.16%
same,"viability, T/C",[19],0.2%
same,"viability, T/C",[20],0.28%
same,"viability, T/C","second compound 10 µM, first compound 0.00316 µM",0.13%
same,"viability, T/C","second compound 10 µM, first compound 0.01 µM",0.22%
same,"viability, T/C",[21],0.24%
same,"viability, T/C",[22],0.42%
same,"viability, T/C",[23],0.21%
same,"viability, T/C",[24],3.78%

# Reference: PubChem BioAssay AID2060618 (Molecular Pharmacology Branch, DTP, NCI, 2025)
